Results taken from patent publication US20260007601A1, “IONIZABLE CATIONIC LIPID COMPOUND AND COMPOSITION FOR DELIVERING NUCLEIC ACID AND USE THEREOF” (BEIJING YOUCAREKECHUANG PHARMACEUTICAL TECHNOLOGY CO., LTD., priority 2023, published 2026).

How the values were obtained:
female BALB/C mice = assay: Mouse in vivo imaging of Fluc-mRNA LNP formulations; set-up: average radiation intensity (mRNA expression): unit not given here; details: for average radiation intensity (mRNA expression): 10 μg Fluc-mRNA LNP intramuscularly
Outline: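 Female BALB/C mice (4–6 weeks, 17–19 g) received LNP carrying 10 μg Fluc-mRNA intramuscularly. Imaging substrate given intraperitoneally at 6 h, 24 h, 48 h and 7 d; after 5 min free movement, average radiance read by IVIS Spectrum imaging.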

293T cells = assay: Cell transfection experiment of LNP formulation of eGFP-mRNA (optimization of preparation conditions); format: cell-based; details: 0.5% to 15% tested
Description: The cationic lipid compound YK-202 synthesized in Example 1, DSPC (AVT (Shanghai) Pharmaceutical Technology Co., Ltd.), cholesterol (AVT (Shanghai) Pharmaceutical Technology Co., Ltd.) and DMG-PEG2000 were dissolved in ethanol at a molar ratio of 49:10:39.5:1.5 to prepare an ethanol lipid solution. The ethanol lipid solution was quickly added to a citrate buffer (pH=4 to 5) by ethanol injection method and vortexed for 30 seconds for use. eGFP-mRNA was diluted in a citrate buffer (pH=4 to 5) to obtain an mRNA aqueous solution. […]
Plating: The cells in the culture dish were digested, counted, plated in a 96-well plate at 10,000 cells per well, or in a 12-well plate at 150,000 cells per well, and cultured overnight until the cells adhered to the wall.
Cell transfection experiment: The LNP formulation containing 1.5 μg of eGFP-mRNA prepared in Example 2 (the cationic lipid in the carrier was YK-202) and Lipofectamin 3000 formulation of eGFP-mRNA were added to the cell culture medium in a 12-well plate, and the cells were cultured for 24 hours. The transfection efficiency of different samples was investigated by fluorescence microscopy based on the fluorescence intensity.

CCCCCCCCCCCOC(=O)CCCCCN(CCCCCCCC(=O)OCC(CCCCCCCC)CCCCCCCC)CCN(C)CCO [YK-202]
average radiation intensity, times that of ALC-0315 (female BALB/C mice; 6 h): 3.48 times | average radiation intensity, times that of HHMA (female BALB/C mice; 6 h): 4.59 times | average radiation intensity, times that of SM-102 (female BALB/C mice; 6 h): 4.32 times | average radiation intensity, times that of compound 21 (female BALB/C mice; 6 h): 4.89 times | average radiation intensity, times that of compound 23 (female BALB/C mice; 6 h): 4.94 times | mRNA expression level, times that of YK-204 (female BALB/C mice; 6 h): 83.29 times | mRNA expression level, times that of YK-223 (female BALB/C mice; 6 h): 283.49 times | average radiation intensity (mRNA expression) (female BALB/C mice; 6 h): 2935500 | expression level, times that of YK-215 (female BALB/C mice; 6 hours): 58.06 times | expression level, times that of YK-217 (female BALB/C mice; 6 hours): 119.40 times | average radiation intensity, times that of ALC-0315 (female BALB/C mice; 24 h): 11.84 times | average radiation intensity, times that of HHMA (female BALB/C mice; 24 h): 19.69 times | average radiation intensity, times that of SM-102 (female BALB/C mice; 24 h): 18.64 times | average radiation intensity, times that of compound 21 (female BALB/C mice; 24 h): 19.99 times | average radiation intensity, times that of compound 23 (female BALB/C mice; 24 h): 19.47 times | mRNA expression level, times that of YK-204 (female BALB/C mice; 24 h): 412.78 times | mRNA expression level, times that of YK-223 (female BALB/C mice; 24 h): 1208.76 times | average radiation intensity (mRNA expression) (female BALB/C mice; 24 h): 2158840 | expression level, times that of YK-215 (female BALB/C mice; 24 hours): 316.78 times | expression level, times that of YK-217 (female BALB/C mice; 24 hours): 814.66 times | average radiation intensity, times that of ALC-0315 (female BALB/C mice; 48 h): 19.80 times | average radiation intensity, times that of HHMA (female BALB/C mice; 48 h): 25.64 times | average radiation intensity, times that of SM-102 (female BALB/C mice; 48 h): 24.71 times | average radiation intensity, times that of compound 21 (female BALB/C mice; 48 h): 25.15 times | average radiation intensity, times that of compound 23 (female BALB/C mice; 48 h): 23.54 times | mRNA expression level, times that of YK-204 (female BALB/C mice; 48 h): 309.43 times | mRNA expression level, times that of YK-223 (female BALB/C mice; 48 h): 1113.57 times | average radiation intensity (mRNA expression) (female BALB/C mice; 48 h): 755000 | expression level, times that of YK-215 (female BALB/C mice; 48 hours): 207.42 times | expression level, times that of YK-217 (female BALB/C mice; 48 hours): 737.30 times | average radiation intensity, times that of ALC-0315 (female BALB/C mice; 7 d): 5.09 times | average radiation intensity, times that of HHMA (female BALB/C mice; 7 d): 6.31 times | average radiation intensity, times that of SM-102 (female BALB/C mice; 7 d): 5.68 times | average radiation intensity, times that of compound 21 (female BALB/C mice; 7 d): 5.49 times | average radiation intensity, times that of compound 23 (female BALB/C mice; 7 d): 5.75 times | expression level, times that of YK-215 (female BALB/C mice; 7 d): 32.87 times | expression level, times that of YK-217 (female BALB/C mice; 7 d): 64.10 times | mRNA expression level, times that of YK-204 (female BALB/C mice; 7 d): 44.46 times | mRNA expression level, times that of YK-223 (female BALB/C mice; 7 d): 76.19 times | average radiation intensity (mRNA expression) (female BALB/C mice; 7 d): 33524 | mRNA expression level in mice can reach, times that of SM-102 (female BALB/C mice; time point not stated): 24 times | molar ratio of polymer-conjugated lipid DMG-PEG2000 to carrier with the highest transfection efficiency (293T cells): 1.5%
